Test system: CNV progression
Experiment: In vivo choroidal neovascularization (CNV) model, laser-induced
Conditions: Brown-Norway rats, intravitreal injection 30 and/or 100 nmol/eye on Day 1 and/or Day 3 and/or Day 7, CNV area on Day 10
Description: This test measures the capacity of compounds to inhibit CNV progression. CNV is the main cause of severe vision loss in patients suffering from age-related macular degeneration (AMD).
Male Brown-Norway rats (Japan Clea Co., Ltd.) were used in these studies.
Rats were anesthetized by intraperitoneal injection of pentobarbital, and the right pupil was dilated with 0.5% tropicamide and 0.5% phenylephrine hydrochloride. The right eye received 6 laser burns between retinal vessels using a slit lamp delivery system of Green laser Photocoagulator (Nidex Inc., Japan), and microscope slide glass with Heaton™ (AMO Inc) used as a contact lens. The laser power was 100 or 200 mW for 0.1 second and spot diameter was 100 μm. At the time of laser burn, bubble production was observed, which is an indication of rupture of Bruch's membrane which is important for CNV generation.
Rats were divided into the groups based on their body weight using SAS software (SAS institute Japan, R8.1) after laser irradiation (Day 0). After animals were anesthetized, and the right pupil dilated (as above mentioned), the right eye of the animal received the compound or vehicle by intravitreal injection (5 or 10 μL/eye) at doses of 30 and/or 100 nmol/eyeon Day 1 and/or Day 3 and/or Day 7. The compounds were dissolved or suspended in CBS, PBS, or other adequate vehicles before injection.
On Day 10, the animals were anesthetized with ether, and high molecular weight fluorescein isothiocyanate (FITC)-dextran (SIGMA, 2×10^6 MW) was injected via a tail vein (20 mg/rat). About 30 min after FITC-dextran injection, animals were euthanized by ether or carbon dioxide, and the eyes were removed and fixed with 10% formaline neutral buffer solution. After over 1 hour of fixation, RPE-choroid-sclera flat mounts were obtained by removing cornea, lens and retina from the eyeballs. The flat mounts were mounted in 50% glycerol on a microscope slide, and the portion burned by laser was photographed using a fluorescence microscope (Nikon Corporation, excitation filter:465-495 nm, absorption filter:515-555 nm). The CNV area was obtained by measurement of hyper-fluorescence area observed on the photograph using Scion image.
The average CNV area of 6 burns was used as an individual value of CNV area, and the average CNV area of compound treated group was compared with that of the vehicle-treated group. […]

| Compound | % Inhibition of CNV Progression |
| --- | --- |
| COCCNCc1cnc(-c2cc3nccc(Oc4ccc(NC(=O)CC(=O)Nc5ccccc5)cc4F)c3s2)n1C [13(49), N^1-(3-Fluoro-4-(2-(5-((2-methoxyethylamino)methyl)-1-methyl-1H-imidazol-2-yl)thieno[3,2-b]pyridin-7-yloxy)phenyl)-N^3-phenylmalonamide] | A (greater than or equal to 30% inhibition) |
| COCCNCc1cnc(-c2cc3nccc(Oc4ccc(NC(=O)CC(=O)N(C)c5ccccc5)cc4F)c3s2)n1C [14(50), N^1-(3-Fluoro-4-(2-(5-((2-methoxyethylamino)methyl)-1-methyl-1H-imidazol-2-yl)thieno[3,2-b]pyridin-7-yloxy)phenyl)-N3-methyl-N^3-phenylmalonamide] | B (≧10% to <30% inhibition) |
| CN(C(=O)CC(=O)Nc1ccc(Oc2ccnc3cc(-c4ccc(CNCCS(C)(=O)=O)cc4)sc23)c(F)c1)c1ccccc1 [80(187), N1-(3-fluoro-4-(2-(4-((2-(methylsulfonyl)ethylamino)methyl)phenyl)thieno[3,2-b]pyridin-7-yloxy)phenyl)-N3-methyl-N3-phenylmalonamide] | A (greater than or equal to 30% inhibition) |
| COCCNCc1ccc(-c2cc3nccc(Oc4ccc(NC(=O)CC(=O)N(C)c5ccccc5)cc4F)c3s2)nc1 [116(223), N1-(3-fluoro-4-(2-(5-((2-methoxyethylamino)methyl)pyridin-2-yl)thieno[3,2-b]pyridin-7-yloxy)phenyl)-N3-methyl-N3-phenylmalonamide] | B (≧10% to <30% inhibition) |
| COCCNCc1ccc(-c2cc3nccc(Oc4ccc(NC(=O)Nc5cc(C(C)(C)C)on5)cc4F)c3s2)nc1 [145(252), 1-(5-tert-butylisoxazol-3-yl)-3-(3-fluoro-4-(2-(5-((2-methoxyethylamino)methyl)pyridin-2-yl)thieno[3,2-b]pyridin-7-yloxy)phenyl)urea] | B (≧10% to <30% inhibition) |
| COCCNCc1ccc(-c2cc3nccc(Oc4ccc(NC(=O)Nc5cc(C(F)(F)F)ccc5F)cc4F)c3s2)nc1 [146(253), 1-(3-fluoro-4-(2-(5-((2-methoxyethylamino)methyl)pyridin-2-yl)thieno[3,2-b]pyridin-7-yloxy)phenyl)-3-(2-fluoro-5-(trifluoromethyl)phenyl)urea] | A (greater than or equal to 30% inhibition) |
| COCCNCc1ccc(-c2cc3nccc(Oc4ccc(NC(=O)Nc5cccc(C)c5)cc4F)c3s2)nc1 [161(268), 1-(3-fluoro-4-(2-(5-((2-methoxyethylamino)methyl)pyridin-2-yl)thieno[3,2-b]pyridin-7-yloxy)phenyl)-3-m-tolylurea] | B (≧10% to <30% inhibition) |
| COCCNCc1cccc(-c2cc3nccc(Oc4ccc(NC(=O)Nc5cc(C)on5)cc4F)c3s2)n1 [162(269), 1-(3-fluoro-4-(2-(6-((2-methoxyethylamino)methyl)pyridin-2-yl)thieno[3,2-b]pyridin-7-yloxy)phenyl)-3-(5-methylisoxazol-3-yl)urea] | A (greater than or equal to 30% inhibition) |
| COCCNCc1cnc(-c2cc3nccc(Oc4ccc(NC(=O)C5(C(=O)Nc6ccc(F)cc6)CC5)cc4F)c3s2)n1C [163(270), N-(3-fluoro-4-(2-(5-((2-methoxyethylamino)methyl)-1-methyl-1H-imidazol-2-yl)thieno[3,2-b]pyridin-7-yloxy)phenyl)-N-(4-fluorophenyl)cyclopropane-1,1-dicarboxamide] | A (greater than or equal to 30% inhibition) |
| C=CCNC(=O)Nc1ccc(Oc2ccnc3cc(-c4ccc(CNCCOC)cn4)sc23)c(F)c1 [167(274), 1-allyl-3-(3-fluoro-4-(2-(5-((2-methoxyethylamino)methyl)pyridin-2-yl)thieno[3,2-b]pyridin-7-yloxy)phenyl)urea] | A (greater than or equal to 30% inhibition) |

Reference: US8389541B2, “Inhibitors of protein tyrosine kinase activity” (MethylGene Inc., priority 2007, dated 2013)
